# Measurements taken from US10253002B2, “Compounds and methods of treating infections” (Neoculi Pty Ltd., priority 2013, dated 2019).
# Assays:
# Assay in all cases: Broth microdilution MIC, Example 7 (NCL812 and analogues)
# MRSA = assay type: cell-based, Staphylococcus aureus; conditions: for MIC (μg/ml) at 24 hours, MRSA 1 / MIC (μg/ml) at 24 hours, MRSA 2: duplicate lines per compound; for activity against MRSA among analogues: MIC testing, two MRSA strains
# Procedure, shortened: (§1)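 Values are MICs in μg/ml from broth microdilution per CLSI, with growth scored against a drug-free well.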
# VRE = assay type: cell-based, Enterococcus spp.; conditions: for MIC (μg/ml) at 24 hours, VRE 1 / MIC (μg/ml) at 24 hours, VRE 2: duplicate lines per compound; for activity against VRE among analogues: MIC testing, two VRE strains
# Procedure, shortened: as §1
# Escherichia coli = assay type: cell-based; conditions: E. coli; 24 hours; duplicate lines per compound
# Pseudomonas aeruginosa = assay type: cell-based; conditions: P. aeruginosa; 24 hours; duplicate lines per compound
SMILES,"MIC (μg/ml) at 24 hours, MRSA 1 (MRSA) [µg/mL]","MIC (μg/ml) at 24 hours, MRSA 2 (MRSA) [µg/mL]","MIC (μg/ml) at 24 hours, VRE 1 (VRE) [µg/mL]","MIC (μg/ml) at 24 hours, VRE 2 (VRE) [µg/mL]","MIC (μg/ml) at 24 hours, E. coli (Escherichia coli) [µg/mL]","MIC (μg/ml) at 24 hours, P. aeruginosa (Pseudomonas aeruginosa) [µg/mL]",activity against MRSA among analogues (MRSA),activity against VRE among analogues (VRE)
Cl.N=C(N/N=C/c1ccc(Cl)cc1)N/N=C/c1cccc(Cl)c1 [NCL083],>128,>128,>128,>128,>128,>128,,
Cl.N#Cc1ccccc1C=NNC(=N)NN=Cc1ccc(Cl)cc1 [NCL085],>128,>128,>128,>128,>128,>128,,
Cl.N#Cc1cccc(C=NNC(=N)NN=Cc2ccc(Cl)cc2)c1 [NCL086],>128,>128,>128,128,>128,>128,,
Cl.N#Cc1ccc(/C=N/NC(=N)N/N=C/c2ccc(Cl)cc2)cc1 [NCL087],>128,>128,>128,>128,>128,>128,,
Cl.N=C(NC(=O)c1ccccc1)N(N=Cc1ccccc1Cl)C(=O)c1ccccc1 [NCL090],>128,>128,>128,>128,>128,>128,,
FC(F)(F)c1ccc(-c2nnc(Nc3ccc(Cl)cc3)[nH]2)cc1 [NCL091],>128,>128,>128,>128,>128,>128,,
Clc1ccc(CNc2nnc(-c3ccc(Cl)cc3)[nH]2)cc1 [NCL092],>128,>128,>128,>128,>128,>128,,
Cl.N=C(N/N=C/c1ccc2ccccc2c1)N/N=C/c1ccc2ccccc2c1 [NCL093],64,128,64,>128,>128,>128,greatest activity,greatest activity
Cl.N=C(NN=CC1CCCCC1)NN=CC1CCCCC1 [NCL094],128,128,64,128,>128,>128,greatest activity,greatest activity
Cl.N=C(NN=Cc1ccoc1)NN=Cc1ccoc1 [NCL095],>128,>128,>128,>128,>128,>128,,
Cl.N=C(N/N=C/C=C/c1ccccc1)N/N=C/C=C/c1ccccc1 [NCL096],>128,>128,>128,>128,>128,>128,,
Cl.N=C(NN=Cc1cccc(C(=O)O)c1)NN=Cc1cccc(C(=O)O)c1 [NCL098],>128,>128,>128,>128,>128,>128,,
Cl.N=C(N/N=C/c1ccccc1)N/N=C/c1ccccc1 [NCL100],>128,>128,>128,>128,>128,>128,,
Cl.N=C(NN=Cc1cccc(O)c1O)NN=Cc1cccc(O)c1O [NCL101],32,32,64,128,>128,>128,greatest activity,greatest activity
Cl.N=C(NN=Cc1ccccc1[N+](=O)[O-])NN=Cc1ccccc1[N+](=O)[O-] [NCL102],>128,>128,>128,>128,>128,>128,,
Cl.N=C(N/N=C/c1ccc(O)cc1O)N/N=C/c1ccc(O)cc1O [NCL103],>128,>128,>128,>128,>128,>128,,
Cl.N=C(NN=Cc1cc(O)c(O)cc1O)NN=Cc1cc(O)c(O)cc1O [NCL104],64,64,128,>128,>128,>128,greatest activity,
Cl.N=C(NN=Cc1ccc(O)c(O)c1O)NN=Cc1ccc(O)c(O)c1O [NCL105],64,>128,64,>128,>128,>128,,greatest activity
COc1cc(C=NNC(=N)NN=Cc2cc(O)c(O)c(OC)c2)cc(O)c1O.Cl [NCL106],>128,>128,>128,>128,>128,>128,,
Cl.N=C(NN=Cc1cccc(O)c1)NN=Cc1cccc(O)c1 [NCL108],64,64,64,128,>128,>128,greatest activity,greatest activity
Cl.N=C(N/N=C/c1cccc([N+](=O)[O-])c1)N/N=C/c1cccc([N+](=O)[O-])c1 [NCL109],>128,>128,>128,>128,>128,>128,,
Cl.N=C(NN=Cc1ccc([N+](=O)[O-])cc1)NN=Cc1ccc([N+](=O)[O-])cc1 [NCL110],>128,>128,>128,>128,>128,>128,,
Cl.N=C(NN=Cc1ccc(O)c(O)c1)NN=Cc1ccc(O)c(O)c1 [NCL111],64,64,64,>128,>128,>128,greatest activity,greatest activity
Cl.N=C(NN=Cc1ccc(-c2ccccc2)cc1)NN=Cc1ccc(-c2ccccc2)cc1 [NCL112],>128,128,64,32,>128,>128,,greatest activity
Cl.N=C(NN=Cc1cc(Cl)cc(Cl)c1)NN=Cc1cc(Cl)cc(Cl)c1 [NCL114],>128,>128,>128,>128,>128,>128,,
